From publication PMC12136037, “Type II kinase inhibitors that target Parkinson’s disease–associated LRRK2” (Science Advances, 2025)

Columns and labels:
Assay in all cases: DSF 100 kinase selectivity screen;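 further: compound tested at 20 µM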
Format in all cases: binding
[1] = molecular target: T1, ~100 representative kinases (Homo sapiens, UniProt O14965); conditions: Protein STK6; DSF; average of three replicates
T1 construct: Recombinant protein kinase domains with a concentration of 2 μM
T1 sequence (O14965 1-403): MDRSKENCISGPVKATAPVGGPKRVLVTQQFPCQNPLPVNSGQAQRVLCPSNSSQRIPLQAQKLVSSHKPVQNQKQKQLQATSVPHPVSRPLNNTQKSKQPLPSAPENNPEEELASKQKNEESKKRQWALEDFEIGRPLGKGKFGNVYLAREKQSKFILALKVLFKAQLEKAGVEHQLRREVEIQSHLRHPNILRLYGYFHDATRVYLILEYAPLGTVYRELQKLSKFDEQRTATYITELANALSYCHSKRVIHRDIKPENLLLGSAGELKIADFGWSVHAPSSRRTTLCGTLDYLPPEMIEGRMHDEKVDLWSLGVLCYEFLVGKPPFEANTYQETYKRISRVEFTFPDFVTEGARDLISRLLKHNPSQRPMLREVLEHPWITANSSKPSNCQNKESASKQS
How it was run: (§1)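 Each kinase domain, at 2 μM, is mixed with 20 μM test compound and SYPRO Orange in Hepes (20 mM, pH 7.5) with 500 mM NaCl. Temperature is then raised at 3°C/min and fluorescence-monitored unfolding yields the melting temperature change, ΔTm in degrees Celsius.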

[2] = molecular target: T2, ~100 representative kinases (Homo sapiens, UniProt O94804); conditions: Protein STK10; DSF; average of three replicates
T2 construct: Recombinant protein kinase domains with a concentration of 2 μM
T2 sequence (O94804 whole entry, the tested form may be a part): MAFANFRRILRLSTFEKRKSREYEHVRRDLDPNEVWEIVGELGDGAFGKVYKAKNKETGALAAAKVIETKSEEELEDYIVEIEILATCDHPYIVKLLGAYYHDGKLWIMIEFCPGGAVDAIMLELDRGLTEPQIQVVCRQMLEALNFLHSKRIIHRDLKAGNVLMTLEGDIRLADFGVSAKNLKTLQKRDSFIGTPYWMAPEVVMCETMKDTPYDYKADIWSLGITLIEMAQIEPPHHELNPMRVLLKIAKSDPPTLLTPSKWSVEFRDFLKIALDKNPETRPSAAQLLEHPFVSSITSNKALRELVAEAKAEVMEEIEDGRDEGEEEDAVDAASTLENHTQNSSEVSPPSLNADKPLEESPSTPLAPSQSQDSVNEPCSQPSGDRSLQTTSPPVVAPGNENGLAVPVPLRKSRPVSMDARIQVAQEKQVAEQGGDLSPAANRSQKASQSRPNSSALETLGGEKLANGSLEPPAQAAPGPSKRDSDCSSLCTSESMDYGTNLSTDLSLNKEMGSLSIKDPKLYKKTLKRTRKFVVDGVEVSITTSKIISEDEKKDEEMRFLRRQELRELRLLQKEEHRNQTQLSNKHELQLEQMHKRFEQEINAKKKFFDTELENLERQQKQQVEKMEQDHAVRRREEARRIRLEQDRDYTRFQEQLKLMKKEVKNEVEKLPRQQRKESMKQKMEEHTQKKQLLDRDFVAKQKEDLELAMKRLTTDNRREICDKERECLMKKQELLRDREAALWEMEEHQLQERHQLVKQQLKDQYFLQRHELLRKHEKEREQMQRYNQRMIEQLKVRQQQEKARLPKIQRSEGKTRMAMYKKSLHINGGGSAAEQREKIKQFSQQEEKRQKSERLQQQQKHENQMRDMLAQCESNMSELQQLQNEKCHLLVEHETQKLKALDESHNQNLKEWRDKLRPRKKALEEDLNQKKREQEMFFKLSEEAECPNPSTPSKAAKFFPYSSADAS
How it was run: as §1

[3] = molecular target: T3, ~100 representative kinases (Homo sapiens, UniProt P27448); conditions: protein MARK3; average of three replicates
T3 construct: Recombinant protein kinase domains with a concentration of 2 μM
T3 sequence (P27448 whole entry, the tested form may be a part): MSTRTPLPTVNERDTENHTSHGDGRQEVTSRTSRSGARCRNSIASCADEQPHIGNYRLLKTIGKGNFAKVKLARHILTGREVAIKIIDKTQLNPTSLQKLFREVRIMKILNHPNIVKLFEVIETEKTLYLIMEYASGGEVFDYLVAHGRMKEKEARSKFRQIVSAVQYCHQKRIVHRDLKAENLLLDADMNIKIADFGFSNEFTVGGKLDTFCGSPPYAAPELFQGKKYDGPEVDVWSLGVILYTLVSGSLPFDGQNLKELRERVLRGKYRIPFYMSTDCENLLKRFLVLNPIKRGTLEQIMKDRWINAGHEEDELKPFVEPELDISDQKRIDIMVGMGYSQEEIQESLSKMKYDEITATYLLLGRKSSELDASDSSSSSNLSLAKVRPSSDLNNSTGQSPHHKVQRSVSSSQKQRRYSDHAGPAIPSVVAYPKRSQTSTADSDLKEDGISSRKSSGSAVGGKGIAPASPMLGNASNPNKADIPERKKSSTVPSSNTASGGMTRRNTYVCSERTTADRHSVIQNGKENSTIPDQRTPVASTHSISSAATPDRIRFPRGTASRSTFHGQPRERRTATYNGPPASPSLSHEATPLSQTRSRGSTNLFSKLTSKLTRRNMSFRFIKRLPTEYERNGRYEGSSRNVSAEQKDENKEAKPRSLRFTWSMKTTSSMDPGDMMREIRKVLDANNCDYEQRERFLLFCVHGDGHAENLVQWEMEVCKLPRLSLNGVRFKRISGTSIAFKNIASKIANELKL
How it was run: as §1

[4] = molecular target: T4, ~100 representative kinases (Homo sapiens, UniProt P34947); conditions: protein GPRK5; average of three replicates
T4 construct: Recombinant protein kinase domains with a concentration of 2 μM
T4 sequence (P34947 whole entry, the tested form may be a part): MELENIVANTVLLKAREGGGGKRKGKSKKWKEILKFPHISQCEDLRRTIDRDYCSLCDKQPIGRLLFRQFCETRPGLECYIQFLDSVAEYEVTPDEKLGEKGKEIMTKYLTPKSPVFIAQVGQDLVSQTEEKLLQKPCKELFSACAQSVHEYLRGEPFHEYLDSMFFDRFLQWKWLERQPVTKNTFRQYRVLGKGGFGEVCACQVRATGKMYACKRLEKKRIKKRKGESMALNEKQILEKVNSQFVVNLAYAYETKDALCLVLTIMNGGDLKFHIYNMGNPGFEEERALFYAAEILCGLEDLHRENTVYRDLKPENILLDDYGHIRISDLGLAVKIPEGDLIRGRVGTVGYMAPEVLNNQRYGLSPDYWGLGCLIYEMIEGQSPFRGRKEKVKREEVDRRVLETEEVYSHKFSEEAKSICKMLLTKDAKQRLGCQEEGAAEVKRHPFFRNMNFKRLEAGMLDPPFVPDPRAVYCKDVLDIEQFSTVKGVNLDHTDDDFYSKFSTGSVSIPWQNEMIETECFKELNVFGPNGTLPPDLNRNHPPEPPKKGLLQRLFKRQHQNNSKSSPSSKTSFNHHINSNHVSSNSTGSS
How it was run: as §1

[5] = molecular target: T5, ~100 representative kinases (Homo sapiens, UniProt P54753); conditions: Protein EPHB3A; average of three replicates
T5 construct: Recombinant protein kinase domains with a concentration of 2 μM
T5 sequence (P54753 34-998): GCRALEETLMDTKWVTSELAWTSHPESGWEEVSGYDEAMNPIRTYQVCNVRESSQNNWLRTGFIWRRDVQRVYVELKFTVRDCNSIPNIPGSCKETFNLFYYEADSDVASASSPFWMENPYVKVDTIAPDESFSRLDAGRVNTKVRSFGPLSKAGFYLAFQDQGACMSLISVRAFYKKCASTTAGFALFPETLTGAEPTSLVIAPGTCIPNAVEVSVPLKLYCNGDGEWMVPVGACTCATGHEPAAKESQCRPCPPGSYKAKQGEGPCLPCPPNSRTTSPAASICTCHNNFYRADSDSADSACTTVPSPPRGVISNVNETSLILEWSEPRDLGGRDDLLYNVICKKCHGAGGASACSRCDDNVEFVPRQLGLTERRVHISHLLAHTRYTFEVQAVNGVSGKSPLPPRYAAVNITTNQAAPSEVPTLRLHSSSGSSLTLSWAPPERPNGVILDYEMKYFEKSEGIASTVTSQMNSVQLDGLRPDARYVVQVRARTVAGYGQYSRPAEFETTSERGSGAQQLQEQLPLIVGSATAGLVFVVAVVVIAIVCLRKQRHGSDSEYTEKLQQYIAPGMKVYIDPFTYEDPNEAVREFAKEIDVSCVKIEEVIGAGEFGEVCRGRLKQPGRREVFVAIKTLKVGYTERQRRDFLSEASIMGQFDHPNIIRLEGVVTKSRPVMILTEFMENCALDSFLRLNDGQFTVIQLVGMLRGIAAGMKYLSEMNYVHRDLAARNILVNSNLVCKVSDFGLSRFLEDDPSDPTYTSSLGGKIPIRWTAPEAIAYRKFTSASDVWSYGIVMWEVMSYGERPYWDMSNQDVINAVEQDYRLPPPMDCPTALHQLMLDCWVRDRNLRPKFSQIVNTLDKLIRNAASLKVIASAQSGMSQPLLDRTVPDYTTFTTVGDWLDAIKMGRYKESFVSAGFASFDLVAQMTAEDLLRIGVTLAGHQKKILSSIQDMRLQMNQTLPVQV
How it was run: as §1

[6] = molecular target: T6, ~100 representative kinases (Homo sapiens, UniProt P54762); conditions: Protein EPHB1; average of three replicates
T6 construct: Recombinant protein kinase domains with a concentration of 2 μM
T6 sequence (P54762 18-984): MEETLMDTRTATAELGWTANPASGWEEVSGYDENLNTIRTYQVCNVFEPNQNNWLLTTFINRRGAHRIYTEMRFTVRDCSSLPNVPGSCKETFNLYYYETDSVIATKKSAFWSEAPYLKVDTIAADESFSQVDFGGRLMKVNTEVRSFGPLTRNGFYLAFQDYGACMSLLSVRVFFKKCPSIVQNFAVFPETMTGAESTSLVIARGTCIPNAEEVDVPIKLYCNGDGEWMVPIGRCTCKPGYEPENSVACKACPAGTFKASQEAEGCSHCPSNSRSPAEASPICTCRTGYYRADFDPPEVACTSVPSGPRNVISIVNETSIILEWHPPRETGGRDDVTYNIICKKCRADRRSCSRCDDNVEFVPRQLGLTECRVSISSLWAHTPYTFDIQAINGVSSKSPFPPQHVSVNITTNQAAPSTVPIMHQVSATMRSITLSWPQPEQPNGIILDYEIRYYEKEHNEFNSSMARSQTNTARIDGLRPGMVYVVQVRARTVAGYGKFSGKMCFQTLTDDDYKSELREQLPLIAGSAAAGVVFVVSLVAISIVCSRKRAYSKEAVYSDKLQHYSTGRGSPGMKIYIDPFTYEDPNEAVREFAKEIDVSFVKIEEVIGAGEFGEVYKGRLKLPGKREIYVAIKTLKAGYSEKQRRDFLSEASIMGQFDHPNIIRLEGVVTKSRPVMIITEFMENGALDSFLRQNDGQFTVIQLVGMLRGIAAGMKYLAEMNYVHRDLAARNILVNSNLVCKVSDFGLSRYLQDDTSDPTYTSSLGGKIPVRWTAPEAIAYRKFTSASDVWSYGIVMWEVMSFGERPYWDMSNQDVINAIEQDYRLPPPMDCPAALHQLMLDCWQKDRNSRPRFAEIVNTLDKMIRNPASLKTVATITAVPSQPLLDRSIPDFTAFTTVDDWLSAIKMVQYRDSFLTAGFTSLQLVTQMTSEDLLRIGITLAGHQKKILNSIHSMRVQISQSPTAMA
How it was run: as §1

[7] = molecular target: T7, ~100 representative kinases (Homo sapiens, UniProt Q5VT25); conditions: Protein CDC42BPA; average of three replicates
T7 construct: Recombinant protein kinase domains with a concentration of 2 μM
T7 sequence (Q5VT25 whole entry, the tested form may be a part): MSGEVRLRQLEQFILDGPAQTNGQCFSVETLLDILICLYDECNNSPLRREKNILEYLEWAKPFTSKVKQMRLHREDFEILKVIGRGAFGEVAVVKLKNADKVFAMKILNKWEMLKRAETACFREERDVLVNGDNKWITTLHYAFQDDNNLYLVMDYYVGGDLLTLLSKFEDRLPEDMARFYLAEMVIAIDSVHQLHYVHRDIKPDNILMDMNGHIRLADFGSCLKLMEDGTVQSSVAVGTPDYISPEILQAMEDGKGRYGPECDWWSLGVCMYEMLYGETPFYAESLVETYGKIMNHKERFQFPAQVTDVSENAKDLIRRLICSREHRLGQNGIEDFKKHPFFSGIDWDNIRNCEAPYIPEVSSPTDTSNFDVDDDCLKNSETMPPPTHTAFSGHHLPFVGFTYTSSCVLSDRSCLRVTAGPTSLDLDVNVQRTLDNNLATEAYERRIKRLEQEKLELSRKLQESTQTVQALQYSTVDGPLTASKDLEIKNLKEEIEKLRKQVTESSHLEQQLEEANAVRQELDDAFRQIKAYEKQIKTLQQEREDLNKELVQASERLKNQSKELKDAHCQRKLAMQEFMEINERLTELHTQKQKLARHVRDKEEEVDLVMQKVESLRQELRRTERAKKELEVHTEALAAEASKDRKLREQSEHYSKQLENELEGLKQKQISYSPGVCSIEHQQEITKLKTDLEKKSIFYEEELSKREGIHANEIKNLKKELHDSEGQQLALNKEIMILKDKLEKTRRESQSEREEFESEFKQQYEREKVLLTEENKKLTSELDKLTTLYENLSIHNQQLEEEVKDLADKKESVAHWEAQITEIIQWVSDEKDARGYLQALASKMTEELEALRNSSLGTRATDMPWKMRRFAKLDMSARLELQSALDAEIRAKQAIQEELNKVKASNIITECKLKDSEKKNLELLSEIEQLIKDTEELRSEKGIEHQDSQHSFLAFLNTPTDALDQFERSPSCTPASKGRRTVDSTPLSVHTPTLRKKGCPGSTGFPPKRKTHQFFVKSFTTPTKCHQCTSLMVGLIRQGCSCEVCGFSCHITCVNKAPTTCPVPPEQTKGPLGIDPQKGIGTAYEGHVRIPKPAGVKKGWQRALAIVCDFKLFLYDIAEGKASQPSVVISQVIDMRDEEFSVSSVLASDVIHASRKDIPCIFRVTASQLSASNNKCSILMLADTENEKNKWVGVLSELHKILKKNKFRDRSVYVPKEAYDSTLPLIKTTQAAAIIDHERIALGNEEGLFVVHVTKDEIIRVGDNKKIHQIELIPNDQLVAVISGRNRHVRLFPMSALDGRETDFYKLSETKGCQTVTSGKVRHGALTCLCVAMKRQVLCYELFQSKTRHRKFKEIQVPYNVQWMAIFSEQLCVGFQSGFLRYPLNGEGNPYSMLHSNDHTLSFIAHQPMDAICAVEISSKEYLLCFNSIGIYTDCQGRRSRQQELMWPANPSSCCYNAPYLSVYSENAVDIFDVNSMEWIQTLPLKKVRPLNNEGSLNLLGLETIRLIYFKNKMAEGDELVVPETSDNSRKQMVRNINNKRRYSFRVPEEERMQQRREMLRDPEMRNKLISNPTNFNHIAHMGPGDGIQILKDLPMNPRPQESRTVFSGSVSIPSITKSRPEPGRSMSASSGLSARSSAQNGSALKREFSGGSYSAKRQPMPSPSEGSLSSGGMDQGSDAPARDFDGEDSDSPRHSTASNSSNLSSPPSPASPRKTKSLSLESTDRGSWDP
How it was run: as §1

Row | dTm [1] [K] | dTm [2] [K] | dTm [3] [K] | dTm [4] [K] | dTm [5] [K] | dTm [6] [K] | dTm [7] [K] | Compound
1 | 6.07 | 12.98 | 4.79 | -0.82 | 2.82 | 3.27 | -0.78 | O=C(Nc1ccc(F)cc1)C1(C(=O)Nc2cccc(-c3c[nH]c4ncnc(N5CCOCC5)c34)c2)CC1 [Compound 2]
2 | 6.06 | 12.16 | 6.63 | 0.34 | 0.65 | 1.66 | -1.17 | COc1cc(NC(=O)C2(C(=O)Nc3cccc(-c4c[nH]c5ncnc(N6CCOCC6)c45)c3)CC2)ccc1F [Compound 21]
3 | 6.69 | 15.18 | 4.89 | -0.26 | 0.59 | -3.38 | -0.53 | CC(C)(C)c1cccc(NC(=O)C2(C(=O)Nc3cccc(-c4c[nH]c5ncnc(N6CCOCC6)c45)c3)CC2)c1 [Compound 22]
4 | 4.13 | 20.37 | 2.95 | 0.00 | -2.20 | 5.08 | -0.10 | Cc1ccc(-n2nc(C(C)(C)C)cc2NC(=O)Nc2cccc(-c3c[nH]c4ncnc(N5CCOCC5)c34)c2)cc1 [Compound 29]
5 | -0.19 | -1.61 | 0.75 | 1.16 | -1.89 | -0.51 | -0.18 | COc1cc(S(C)(=O)=O)ccc1Nc1nc(N(C)C)c2c(Cl)c[nH]c2n1 [Compound 37]
6 | 6.33 | 9.26 | 4.65 | -0.45 | 1.84 | 2.11 | -1.22 | O=C(Nc1cccc(-c2c[nH]c3ncnc(N4CCOCC4)c23)c1)C1(C(=O)Nc2ccc(F)cc2F)CC1 [Compound 23]

Second part, the molecule before the results:

Row | Compound | dTm [1] [K] | dTm [2] [K] | dTm [3] [K] | dTm [4] [K] | dTm [5] [K] | dTm [6] [K] | dTm [7] [K]
7 | CCSc1nc(NC)c2c(-c3cccc(NC(=O)Nc4cc(C(C)(C)C)nn4-c4ccc(C)cc4)c3)c[nH]c2n1 [Compound 32] | 0.53 | 8.61 | 0.16 | -0.61 | -3.33 | 0.21 | 0.69
8 | O=C(Nc1cccc(-c2c[nH]c3ncnc(N4CCOCC4)c23)c1)c1cccn(-c2ccc(F)cc2)c1=O [Compound 4] | 7.18 | 11.47 | 4.45 | 0.55 | 3.66 | 2.81 | -0.81
9 | O=C(Nc1cccc(-c2c[nH]c3ncnc(N4CCOCC4)c23)c1)C1(C(=O)Nc2cc(Br)c(F)cc2F)CC1 [Compound 25] | 6.39 | 11.10 | 3.00 | 0.32 | -0.88 | -4.24 | -0.57
10 | CNC(=O)c1cc(Oc2ccc(NC(=O)Nc3cc(C(C)(C)C)nn3-c3ccc4ncccc4c3)c(F)c2)ccn1 [Rebastinib, reference compound] | 1.83 | 16.27 | 0.56 | 0.59 | -2.84 | 4.28 | 0.18
11 | CCc1ccc(NC(=O)C2(C(=O)Nc3cccc(-c4c[nH]c5ncnc(N6CCOCC6)c45)c3)CC2)cc1 [Compound 15] | 9.54 | 12.89 | 6.20 | 1.27 | 4.01 | 3.72 | -0.98
12 | CC(=O)N1CCN(c2nc(Cl)nc3[nH]cc(-c4cccc(NC(=O)Nc5cc(C(C)(C)C)nn5-c5ccc(C)cc5)c4)c23)CC1 [Compound 31] | 0.55 | 13.28 | -0.26 | -1.15 | -1.56 | 0.39 | 0.50
13 | O=C(Nc1cccc(-c2c[nH]c3ncnc(N4CCOCC4)c23)c1)C1(C(=O)Nc2ccc(F)c(Br)c2F)CC1 [Compound 26] | 3.83 | 12.57 | 3.94 | 0.25 | -0.51 | -6.10 | -0.44
14 | C[C@@H]1CN(c2cc(-c3n[nH]c4ccc(OC5(C)CC5)cc34)ncn2)C[C@H](C)O1 [MLi2] | 0.17 | -0.79 | -1.07 | 0.07 | 0.06 | -0.37 | -0.93
15 | O=C(Nc1cccc(-c2c[nH]c3ncnc(N4CCOCC4)c23)c1)C1(C(=O)Nc2cccc3c2CCC3)CC1 [Compound 11] | 4.34 | 10.54 | 3.89 | -0.20 | 0.28 | -11.24 | -1.26
16 | O=C(Nc1ccccc1)C1(C(=O)Nc2cccc(-c3c[nH]c4ncnc(N5CCOCC5)c34)c2)CC1 [Compound 12] | 6.39 | 11.85 | 4.89 | 0.86 | 3.99 | 2.37 | -0.16
17 | COc1cc(C(=O)N2CCOCC2)c(F)cc1Nc1nc(N(C)C)c2c(Cl)c[nH]c2n1 [Compound 36] | 3.22 | -1.96 | -1.24 | 0.46 | -1.35 | -0.27 | -0.93
